From the NIST ThermoML archive (doi:10.1016/j.jct.2013.08.002)

Assay: relative permittivity at various frequencies (dimensionless)
Settings: 101 kPa, Liquid, Frequency=0.01 MHz, Coaxial cylinder capacitor

NCCNCCO [N-(2-aminoethyl)ethanolamine]
Settings	relative permittivity
293.2 K	21.51
299.2 K	19.87
304.2 K	18.18
308.2 K	17.09
314.2 K	15.84
320.2 K	14.64
323.2 K	13.97
330.2 K	12.89
333.2 K	12.3
339.2 K	11.37
343.2 K	10.77
348.2 K	10.19
